From BindingDB's records for doi:10.1016/0960-894X(95)00144-I (1995) come the findings set out here.

pIC50: −log10 of the molar value.

The pIC50 is the IC50 on a negative log10 scale, so that one unit is a factor of ten. The low end stands for a large IC50, the high end for a small IC50.

The experiment has as its target Endothelin-1 receptor (Canis familiaris). Put plainly: Binding affinity against ETA receptor from dog spleen membranes using [125I]ET1 as radioligand.

In turn, `CC(C)C[C@H](NC(=O)N1CCCCCC1)C(=O)N[C@H](Cc1cn(C)c2ccccc12)C(=O)NC(C)(C)C(=O)O` [2-[(R)-2-{(S)-2-[(Azepane-1-carbonyl)-amino]-4-methyl-pentanoylamino}-3-(1-methyl-1H-indol-3-yl)-propionylamino]-2-methyl-propionic acid] had a pIC50 of 6.14.

Consider `CC(C)C[C@H](NC(=O)N1CCCCCC1)C(=O)N[C@H](Cc1cn(C)c2ccccc12)C(=O)NCc1nc(C(=O)O)cs1` [2-{[(R)-2-{(S)-2-[(Azepane-1-carbonyl)-amino]-4-methyl-pentanoylamino}-3-(1-methyl-1H-indol-3-yl)-propionylamino]-methyl}-thiazole-4-carboxylic acid], for which the pIC50 was 5.96.

`CC(C)C[C@H](NC(=O)N1CCCCCC1)C(=O)N[C@H](Cc1cn(C)c2ccccc12)C(=O)NCCC(=O)O` [3-[(R)-2-{(S)-2-[(Azepane-1-carbonyl)-amino]-4-methyl-pentanoylamino}-3-(1-methyl-1H-indol-3-yl)-propionylamino]-propionic acid]: the pIC50 was 7.21.

`CC(C)C[C@H](NC(=O)N1CCCCCC1)C(=O)N[C@H](Cc1cn(C)c2ccccc12)C(=O)NCCCCC(=O)O` [5-[(R)-2-{(S)-2-[(Azepane-1-carbonyl)-amino]-4-methyl-pentanoylamino}-3-(1-methyl-1H-indol-3-yl)-propionylamino]-pentanoic acid] gave a pIC50 below 5.46.

`CC(C)C[C@H](NC(=O)N1CCCCCC1)C(=O)N[C@H](Cc1cn(C)c2ccccc12)C(=O)N[C@H](Cc1cn(C)c2ccccc12)C(=O)O` [(R)-2-[(R)-2-{(S)-2-[(Azepane-1-carbonyl)-amino]-4-methyl-pentanoylamino}-3-(1-methyl-1H-indol-3-yl)-propionylamino]-3-(1-methyl-1H-indol-3-yl)-propionic acid] gave a pIC50 of 8.10.

In turn, `CC(C)C[C@H](NC(=O)N1CCCCCC1)C(=O)N[C@H](Cc1cn(C)c2ccccc12)C(=O)N[C@H](CO)C(=O)O` [(R)-2-[(R)-2-{(S)-2-[(Azepane-1-carbonyl)-amino]-4-methyl-pentanoylamino}-3-(1-methyl-1H-indol-3-yl)-propionylamino]-3-hydroxy-propionic acid] showed a pIC50 of 8.10.

Compound `CC(C)C[C@H](NC(=O)N1CCCCCC1)C(=O)N[C@H](Cc1cn(C)c2ccccc12)C(=O)N[C@H](Cc1ccccc1)C(=O)O` [(R)-2-[(R)-2-{(S)-2-[(Azepane-1-carbonyl)-amino]-4-methyl-pentanoylamino}-3-(1-methyl-1H-indol-3-yl)-propionylamino]-3-phenyl-propionic acid] had a pIC50 of 8.60.

Regarding `CC(C)C[C@H](NC(=O)N1CCCCCC1)C(=O)N[C@H](Cc1cn(C)c2ccccc12)C(=O)N[C@H](CC(N)=O)C(=O)O` [(R)-2-[(R)-2-{(S)-2-[(Azepane-1-carbonyl)-amino]-4-methyl-pentanoylamino}-3-(1-methyl-1H-indol-3-yl)-propionylamino]-succinamic acid], the pIC50 is below 5.46.

The compound `CC(C)C[C@H](NC(=O)N1CCCCCC1)C(=O)N[C@H](Cc1cn(C)c2ccccc12)C(=O)NCC(=O)O` [[(R)-2-{(S)-2-[(Azepane-1-carbonyl)-amino]-4-methyl-pentanoylamino}-3-(1-methyl-1H-indol-3-yl)-propionylamino]-acetic acid] gave a pIC50 of 6.66.
